From publication PMC6948154 (Cell reports, 2019)

Legend:
[1] = target: Hedgehog acyltransferase (Hhat) (Homo sapiens, UniProt Q5VTY9, Y351A); test: in vitro Shh peptide palmitoylation by purified Y351A Hhat; type: biochemical
[2] = target: Hedgehog acyltransferase (Hhat) (Homo sapiens, UniProt Q5VTY9); test: NBD-palmitoyl-CoA uptake into liposomes with purified Hhat; type: biochemical
Hedgehog acyltransferase (Hhat) (Homo sapiens, UniProt Q5VTY9), sequence (Q5VTY9 whole entry): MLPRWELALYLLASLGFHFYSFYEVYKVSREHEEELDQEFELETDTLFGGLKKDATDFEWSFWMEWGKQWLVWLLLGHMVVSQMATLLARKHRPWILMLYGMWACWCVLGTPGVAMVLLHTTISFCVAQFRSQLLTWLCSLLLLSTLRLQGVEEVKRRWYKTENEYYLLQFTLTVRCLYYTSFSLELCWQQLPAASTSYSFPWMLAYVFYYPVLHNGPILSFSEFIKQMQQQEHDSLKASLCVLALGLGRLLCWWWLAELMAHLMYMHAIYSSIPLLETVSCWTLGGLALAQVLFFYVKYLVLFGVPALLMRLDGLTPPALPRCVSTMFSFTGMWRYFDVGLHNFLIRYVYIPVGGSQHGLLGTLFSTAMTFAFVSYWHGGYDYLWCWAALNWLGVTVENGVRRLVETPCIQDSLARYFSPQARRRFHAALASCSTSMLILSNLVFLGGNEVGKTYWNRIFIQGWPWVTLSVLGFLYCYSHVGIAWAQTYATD

Hedgehog acyltransferase (Hhat) (Homo sapiens, UniProt Q5VTY9, Y351A), sequence (Q5VTY9 whole entry Y351A): as the sequence (Q5VTY9 whole entry) above, with Y351A counted along it

| IC50 [2] | Molecule | in vitro Shh peptide palmitoylation by purified Y351A Hhat [1] |
| --- | --- | --- |
| – | CC(C)(COP(=O)(O)OP(=O)(O)OC[C@H]1O[C@@H](n2cnc3c(N)ncnc32)[C@H](O)[C@@H]1OP(=O)(O)O)[C@@H](O)C(=O)NCCC(=O)NCCSC(=O)CCCCCCCCCCCCCCCI [[125I] IodoPalmitoyl-CoA] | Y351A retained near-WT levels of Shh palmitoylation activity when assayed in vitro using detergent-solubilized membranes and as a purified enzyme |
| 2450 nM | TDI-3410 | – |
